Results reported in publication PMC8705409, “Synthesis of sp^2-Iminosugar Selenoglycolipids as Multitarget Drug Candidates with Antiproliferative, Leishmanicidal and Anti-Inflammatory Properties” (Molecules, 2021).
“Also recorded” adds a separate entry of the source. Like-named read-outs stand apart in the source and are kept apart here.

Key:
[1] = test system: human solid tumor cell lines A549, SW1573, HBL-100, T-47D, HeLa, WiDr; parameters: method as in PMID 28728108; details: same assay; read-out: GI50 of reference agent in the same assay; cited from earlier work
[2] = test system: A549 (lung) human solid tumor cell line; experiment: Antiproliferative SRB assay (HTS), A549; format: cell-based; details: 48 h
Method: (§1) All reagents were used as purchased from commercial suppliers without further purification. The human solid tumor cell lines used in this study were: A549, SW1573 (lung), HBL-100, T-47D (breast), HeLa (cervix) and WiDr (colon). These cell lines were a kind gift from Prof. G.J. Peters (VU Medical Center, Amsterdam, The Netherlands).
(§2) Cells were inoculated onto 96-well microtiter plates in a volume of 100 μL per well at densities of 2500 (A549, HBL-100, HeLa, and SW1573) and 5000 (T-47D and WiDr) cells per well, based on their doubling times. Compounds were initially dissolved in DMSO at 400 times the desired final maximum test concentration. Control cells were exposed to an equivalent concentration of DMSO (0.25% v/v, negative control). Each agent was tested in triplicate at different dilutions in the range of 1–100 μM. The drug treatment started on day 1 after plating. Drug incubation times were 48 h, after which cells were precipitated with 25 μL ice-cold TCA (50% w/v) and fixed for 60 min at 4 °C. Then the SRB assay was performed. The optical density (OD) of each well was measured at 530 nm, using BioTek’s PowerWave XS Absorbance Microplate Reader. Values were corrected for background OD from wells only containing medium. The antiproliferative activity for each compound, expressed as GI50 values, was calculated according to NCI formulas.

[3] = test system: SW1573 (lung) human solid tumor cell line; experiment: Antiproliferative SRB assay (HTS), SW1573; format: cell-based; details: 48 h
Method: as §1, §2

[4] = test system: HBL-100 (breast) human solid tumor cell line; experiment: Antiproliferative SRB assay (HTS), HBL-100; format: cell-based; details: 48 h
Method: as §1, §2

[5] = test system: T-47D (breast) human solid tumor cell line; experiment: Antiproliferative SRB assay (HTS), T-47D; format: cell-based; details: T47D, 48 h
Method: as §1, §2

[6] = test system: HeLa (cervix) human solid tumor cell line; experiment: Antiproliferative SRB assay (HTS), HeLa; format: cell-based; details: 48 h
Method: as §1, §2

[7] = test system: WiDr (colon) human solid tumor cell line; experiment: Antiproliferative SRB assay (HTS), WiDr; format: cell-based; details: 48 h
Method: as §1, §2

[8] = test system: human solid tumor cell lines A549, SW1573, HBL-100, T-47D, HeLa, WiDr; experiment: Antiproliferative SRB assay (HTS), whole panel of six cell lines; format: cell-based; details: for GI50: Homo sapiens, range over the six tumor cell lines, read-out: GI50 against all the cell lines tested
Method: as §1, §2

[9] = test system: intracellular amastigotes of Leishmania donovani HU3; experiment: Susceptibility of intracellular Leishmania amastigotes (luciferase) in THP-1 macrophages; format: cell-based; details: L. donovani HU3 in macrophage-differentiated THP-1, 72 h, threshold 20 μM
Method: Macrophage-differentiated-THP-1 cells, which are considered a suitable model for human macrophages, were plated at a density of 3 × 10^4 macrophages/well in 96-well white polystyrene microplates, and were infected at a macrophage/parasite ratio of 1:10 with L. donovani HU3 promastigotes. 24 h after infection at 35 °C and 5% CO2, extracellular parasites were removed by washing with serum-free medium. Infected cell cultures were then incubated at different compound concentrations in RPMI 1640 medium plus 10% iFBS at 37 °C with 5% CO2 for 72 h. To determine the susceptibility of L. donovani-LUC amastigotes, infected macrophages maintained in 96-well plates were lysed and then luminescence intensity was measured as indicative of the intracellular parasite growth, using the Luciferase Assay System Kit (Promega, Madison, WI, USA) according to the instructions of the supplier.

[10] = Cellular toxicity, MTT assay, THP-1; format: cell-based; details: human, maximal concentration 200 µM, read-out: EC50 THP-1 Cell Line (cytotoxicity)
Method: (§3) Human myelomonocytic cell line THP-1 was grown at 37 °C and 5% CO2 in RPMI-1640 supplemented with 10% iFBS, 2 mM […], 100 U/mL penicillin and 100 μg/mL streptomycin. 3 × 10^4 cells/well in 96-well plates were differentiated to macrophages with 20 ng/mL of PMA treatment for 48 h followed by 24 h of culture in fresh medium. MRC5 cells were grown at 37 °C and 5% CO2 in DMEM complete media. 4000 cells/well in 96-well plates were incubated for 24 h at 37 °C and 5% CO2.
(§4) Cellular toxicity of all compounds was determined using the colorimetric MTT-based assay after incubation at 37 °C for 72 h in the presence of increasing concentrations of compounds (final maximal concentrations 200 µM). The results are expressed as EC50 values, as the concentration of the compound that reduce cell growth by 50% versus untreated control cells. Assays were performed in triplicate.

[11] = Cellular toxicity, MTT assay, MRC-5; format: cell-based; details: human, maximal concentration 200 µM, read-out: EC50 MRC-5 Cell Line (cytotoxicity)
Method: as §3, §4

[12] = test system: Bv.2 microglia cells; experiment: Cellular viability by crystal violet staining; format: cell-based, mouse; details: Bv.2 cells, 24 h, different concentrations
Method: (§5) Mouse microglia Bv.2 cell line was supplied by Dr. M.L. Nieto (IBGM, Valladolid, Spain). Bv.2 cells were cultured at 37 °C in a humidified atmosphere with 5% CO2 in RPMI supplemented with 10% (v/v) heat-inactivated FBS, 1% (v/v) penicillin/streptomycin (Sigma) and 2 mM L-glutamine (Gibco, Carlsbad, CA, USA). Cells were grown up to 70% confluence and then washed twice with PBS and further cultured in serum-free medium and stimulated with LPS (200 ng/mL) with or without 14/10 (0.1–50 µM) for 24 h.
After cell treatments, the medium was discarded, and the remaining viable adherent cells were stained with crystal violet (0.2% w/v in 2% ethanol) for 20 min. After this time, plates were rinsed with tap water and allowed to dry, and 1% SDS was added to solubilize them. The absorbance of each plate was read spectrophotometrically at 560 nm.

[13] = test system: nitrite production in Bv.2 microglial cells; experiment: Nitrite production in LPS-stimulated Bv.2 cells (Griess method); format: cell-based, mouse; details: LPS 200 ng/mL, 24 h
Method: as §5
Nitrite levels were measured by using the Griess method. Briefly, nitrites turn into a pink compound in contact with an acid solution containing 1% sulphanilamide and 0.1% N-(1-naphthyl)ethylenediamine (NEDA), and can be quantified by a colorimetric method at 540 nm in a microplate reader (Versamax Tunable Microplate reader, Molecular Devices, Sunnyvaley, CA, USA).

[14] = test system: iNOS expression in Bv.2 microglial cells; experiment: LPS-induced iNOS protein expression (Western blot); format: cell-based, mouse; details: Bv.2 cells, LPS 200 ng/mL
Method: as §5
(§6) Bv.2 microglial cells were homogenized in lysis buffer containing 50 mM Tris-HCl, pH 7.4, 150 mM NaCl, 1 mM Na3VO4, 1 mM NaF, 1 mM EGTA, […] and 0.25% (w/v) sodium deoxycholate, supplemented with protease inhibitors (10 µg/mL leupeptin, 10 µg/mL aprotinin, and 100 µg/mL phenylmethylsulphonyl fluoride). All debris was removed by centrifugation at 14,000× g for 10 min at 4 °C and protein concentration was quantified using the Bio-Rad protein assay with BSA as a standard. Equivalent amounts of protein were resolved using denaturing sodium dodecyl sulphate-polyacrylamide gel electrophoresis (SDS-PAGE), followed by transfer to PVDF membranes (Bio-Rad). […]
(§7) Densitometry of the Western blots was performed using the ImageJ program. […] Data were analyzed by one-way ANOVA followed by Bonferroni t-test or by paired t-test when comparisons were among two groups. […]

[15] = test system: arginase-1 expression in Bv.2 microglial cells; experiment: Arginase-1 levels (Western blot); format: cell-based, mouse; details: Bv.2 cells, absence or presence of LPS 200 ng/mL; 10 at 10 μM, 14 at 50 μM
Method: as §5, §6, §7

[16] = THP-1 cells differentiated to macrophages with PMA

Row | SMILES | GI50 [1] [µM] | GI50 [2] [µM] | GI50 [3] [µM] | GI50 [4] [µM] | GI50 [5] [µM] | GI50 [6] [µM] | GI50 [7] [µM] | antiproliferative activity ([8]; panel of six tumor cell lines) | EC50 [9] [µM] | EC50 at 72 h [10] [µM] | EC50 at 72 h [11] [µM] | GI50 [8] [µM] | effect on cellular viability [12] | concentration at which nitrite production reached basal level [13] [µM] | effect on LPS-elicited enhancement of iNOS ([14]; compound at 10 μM) | induction of arginase-1 [15] | EC50 at 72 h [10, 16] [µM] | EC50 at 72 h ([11]; MRC-5 cells) [µM] | iNOS increase remaining after treatment (LPS alone 20-fold) ([14]; compound at 50 μM (five-fold higher concentration))
1 | O=c1[nH]cc(F)c(=O)[nH]1 [Compound 5-FU, 5-fluorouracyl] | 5 to 50 | – | – | – | – | – | – | – | – | – | – | – | – | – | – | – | – | – | –
2 | O=C1OC[C@@H]2[C@@H](O)[C@H](O)[C@@H](O)[C@@H]([Se]c3ccccc3)N12 [Compound 8, (1R)-1-Phenylseleno-5N,6O-oxomethylidenenojirimycin] | – | > 100 | > 100 | > 100 | > 100 | > 100 | > 100 | lack of activity; also recorded: inactive | > 20 | > 200 | 172 ± 27 | – | – | – | – | – | – | – | –
3 | CCCCCCCC[Se][C@@H]1[C@H](O)[C@@H](O)[C@H](O)[C@H]2COC(=O)N21 [Compound 9, (1R)-1-Octylseleno-5N,6O-oxomethylidenenojirimycin] | – | 36 | > 100 | > 100 | 71 | 49 | 64 | – | > 20 | > 200 | 94.3 ± 4.95 | ≥ 36 | – | – | – | – | – | – | –
4 | CCCCCCCCCCCC[Se][C@@H]1[C@H](O)[C@@H](O)[C@H](O)[C@H]2COC(=O)N21 [Compound 10, (1R)-1-Dodecylseleno-5N,6O-oxomethylidenenojirimycin] | – | 18 | 28 | 24 | 21 | 22 | 22 | – | 13.4 ± 1.63 | 84.25 ± 0.06 | 31.2 ± 1.61 | 16 to 28 | none of the concentrations used induced a negative effect | 10 | fully abrogated | direct effect on the induction of arginase-1 | – | – | –
5 | CCCCCCCCN[C@@H]1[C@H](O)[C@@H](O)[C@H](O)[C@H]2COC(=O)N21 [Compound 11, (1S)-1-amino-N-octyl-5N,6O-oxomethylidene-1-deoxynojirimycin] | – | > 100 | > 100 | > 100 | > 100 | > 100 | > 100 | – | > 20 | – | – | > 100 | – | – | – | – | 209 ± 10.3 | 155 ± 5.3 | –
6 | CCCCCCCCCCCCN[C@@H]1[C@H](O)[C@@H](O)[C@H](O)[C@H]2COC(=O)N21 [Compound 12, (1S)-1-Amino-N-dodecyl-5N,6O-oxomethylidene-1-deoxynojirimycin] | – | 18 | 30 | 23 | 23 | 23 | 22 | – | > 20 | – | – | 18 to 30 | – | – | – | – | 122 ± 13.3 | 49.6 ± 4.2 | –
7 | CCCCCCCCS[C@@H]1[C@H](O)[C@@H](O)[C@H](O)[C@H]2COC(=O)N21 [Compound 13, (1R)-1-octylthio-5N,6O-oxomethylidenenojirimycin] | – | 58 | > 100 | 73 | 95 | 92 | 89 | – | > 20 | – | – | ≥ 36 | – | – | – | – | 122 ± 5.79 | 58.1 ± 12.6 | –
8 | CCCCCCCCCCCCS[C@@H]1[C@H](O)[C@@H](O)[C@H](O)[C@H]2COC(=O)N21 [Compound 14, (1R)-1-dodecylthio-5N,6O-oxomethylidenenojirimycin] | – | 16 | 18 | 17 | 18 | 17 | 18 | – | > 20 | – | – | 16 to 28 | none of the concentrations used induced a negative effect | 50 | – | did not induce arginase-1 expression | 70.5 ± 3.75 | 43.1 ± 9.83 | about 8 fold
9 | CCCCCCCCCCCCCCCCOP(=O)([O-])OCC[N+](C)(C)C [Miltefosine, reference compound] | – | – | – | – | – | – | – | – | 0.44 ± 0.08 | – | – | – | – | – | – | – | 26.9 ± 3.08 | 57.6 ± 6.38 | –
